Test results taken from publication PMC3227622, “GnRH receptor activation competes at a low level with growth signaling in stably transfected human breast cell lines” (BMC Cancer, 2011).
Entries after “also recorded” stand apart in the source; their conditions may differ. Like-named read-outs stand apart in the source and are kept apart here.

What was measured:
[1] = parameters: method as in PMID 17512856, PMID 19213681; details: by inhibiting secretion of luteinizing hormone and follicle stimulating hormone; ref [1],[2]; cited from earlier work
SVCT-2 cells = test: SRB cell growth assay, SVCT-2 (rat GnRH receptor transfected); type: cell-based, human; details: for IC50: Homo sapiens; for IC50 / effect on cell growth of co-treatment / effect on cell growth: SRB; for effect on cell growth: single treatment
Procedure: (§1) Cells were cultured in Dulbecco's modified Eagle's medium (DMEM) with 10% fetal bovine serum. Medium for SVCT cells was supplemented with recombinant human insulin and hydrocortisone as specified by the suppliers (ECACC, UK). HEK293[SCL60] and WPE-1-NB26-8 cells were cultured as described elsewhere. Cells were transfected with a plasmid construct, pcDNA3.1(+) (neo) (Invitrogen, UK) containing a rat GnRH receptor cDNA insert, using Fugene 6 (Roche, UK) in Optimem-I (GIBCO, Invitrogen, UK). Cell clones growing in 6 cm dishes were picked using trypsinization in cloning cylinders (Sigma, UK) and sequentially expanded in multiwell plates and flasks prior to characterization. Sub-clones were generated by re-transfecting an individual clone with a 2.334 kb SV40 promoter-hygromycin phosphotransferase cDNA fragment excised from pcDNA3.1(-) (hygro) plasmid (Invitrogen, UK) using PvuII (Promega, UK) and purified following agarose gel electrophoresis.
(§2) Cells were seeded into 12 well plates and growth was monitored using the sulforhodamine B (SRB) staining assay described previously. Two milliliters culture medium per well was sufficient to sustain cell growth over all time courses investigated. Cells were treated with a dose range of Triptorelin or vehicle (20% propylene glycol, Sigma, UK). Similar experiments employing IGF-IR, EGFR/ErbB2 and PI3K inhibitors were performed. Assay measurements were performed in triplicate and were repeated on separate occasions. At each time point, cells were fixed by adding 1 ml 25% trichloroacetic acid to each well, stored at 4°C for 1 h before gently washing and drying plates. Fixed cells were stained with 0.4% SRB in 1% acetic acid, washed, dried and dissolved in 1 ml 0.1 M Tris pH 10. Absorbance measurements at 540 nm correlated with the number of cells per well.
(§3) Immuno-fluorescence data were analyzed by one-way ANOVA using Minitab version 16 (Minitab Inc., USA). Prism software (GraphPad, USA) was used to prepare graphs and to calculate EC50 and IC50 values. Western blots were quantified using ImageQuant software (GE Healthcare). Quantitative data were analyzed using on-line tools for T-test, http://easycalculation.com/statistics/standard-deviation.php and http://www.quantitativeskills.com/sisa/.

MCF-7hygro14 cells = test: SRB cell growth assay, MCF-7hygro14 (MCF-7-30-7hygro14); type: cell-based, human; details: for IC50: 96 h, without co-treatment, read-out: IC50 growth inhibition; for IC50 / effect on cell growth of co-treatment / effect on cell growth: 4 days
Procedure: as §1, §2, §3

HEK293[SCL60] cells = test: SRB cell growth assay, HEK293[SCL60]; type: cell-based, human; details: SRB (Triptorelin: after 4 days)
Description: Most reagents were purchased from Sigma UK, including D-Trp^6GnRH-I (D-Trp^6-LHRH, Triptorelin). Antibodies for ERK-1/2 and phosphorylated-ERK1/2 were purchased from Cell Signaling Technology, UK and for β-actin, from Sigma, UK. Secondary antibodies conjugated to alkaline phosphatase were from Sigma, UK. Insulin like growth factor receptor-I (IGF-IR) inhibitor II, EGFR/ErbB2 inhibitor and phosphatidylinositol-4,5-bisphosphate 3-kinase γ (PI3Kγ) inhibitor were purchased from Calbiochem, UK. SVCT cells were purchased from ECACC, UK. MCF-7, MDA-MB-231, ZR-75-1, and T47D cells were from American Type Culture Collection (LGC, UK). The GnRH receptor stably transfected HEK293[SCL60] and prostate WPE-1-NB26-8 cell lines described elsewhere together with HEK293 cells were used as controls for comparison.
Cells were cultured in Dulbecco's modified Eagle's medium (DMEM) with 10% fetal bovine serum. Medium for SVCT cells was supplemented with recombinant human insulin and hydrocortisone as specified by the suppliers (ECACC, UK). HEK293[SCL60] and WPE-1-NB26-8 cells were cultured as described elsewhere. […]
Cells were seeded into 12 well plates and growth was monitored using the sulforhodamine B (SRB) staining assay described previously. […] Absorbance measurements at 540 nm correlated with the number of cells per well.

MDA-MB-231-34 cells = test: SRB cell growth assay, MDA-MB-231-34; type: cell-based, human; details: SRB (Triptorelin 100 nM)
Procedure: as §1
Cells were seeded into 12 well plates and growth was monitored using the sulforhodamine B (SRB) staining assay described previously. Two milliliters culture medium per well was sufficient to sustain cell growth over all time courses investigated. Cells were treated with a dose range of Triptorelin or vehicle (20% propylene glycol, Sigma, UK). […] Absorbance measurements at 540 nm correlated with the number of cells per well.

[2] = system: p-ERK1/2 in MCF-7hygro14 cells; test: p-ERK1/2 western blot, MCF-7hygro14; type: cell-based, human; details: for ERK1/2 re-phosphorylation after inhibitor wash-off: 1 h exposure to IGF-IR inhibitor II, then medium containing serum
Procedure: (§4) Cells were grown in six-well plastic culture plates until 50-70% confluent. Some samples were washed twice with phosphate buffered saline prior to incubation in serum-free medium overnight. Cells were treated with 100 nM Triptorelin or vehicle for specific time periods prior to lysis and harvesting. Samples were processed for western blotting as described previously using NP40 lysis buffer at 4°C [8, 9]. For quantitative data, time points were measured in triplicate. Blots were imaged by a Typhoon phosphor-imager (GE Healthcare, UK) using enhanced chemi-fluorescence detection and analyzed using ImageQuant software (GE Healthcare, UK).
as §3

[3] = system: p-ERK1/2 in MDA-MB-231-34 cells; test: p-ERK1/2 western blot, MDA-MB-231-34; type: cell-based, human; details: IGF-IR inhibitor II
Procedure: as §4, §3

[4] = system: p-ERK1/2 in HEK293[SCL60] cells; test: p-ERK1/2 western blot, HEK293[SCL60]; type: cell-based, human; details: IGF-IR inhibitor washed off, without Triptorelin
Procedure: as §4, §3

[5] = 96 h, without co-treatment, 4 days, read-out: IC50 growth inhibition
[6] = co-treatment with 100 nM Triptorelin, 4 days
[7] = co-treatment with 100 nM Triptorelin, SRB
[8] = single treatment, SRB (Triptorelin 100 nM)
[9] = 15-20 μM IGF-IR inhibitor II, in the presence of serum
[10] = listed as IGF-I receptor inhibitor

## goserelin
[1]
  plasma levels of estrogen: lowers plasma levels of estrogen

## COc1cc2ncnc(Nc3ccc(OCc4ccccc4)cc3)c2cc1OC [EGFR/ErbB2 inhibitor, 4-(4-Benzyloxyanilino)-6,7-dimethoxyquinazoline]
SVCT-2 cells; [5]
  IC50: ~2 µM
SVCT-2 cells; after 4 days, SRB staining, 540 nm, DMEM with 10% fetal bovine serum, triplicate
  growth inhibition relative to vehicle treated cells: 50%
SVCT-2 cells; [6]
  effect on cell growth of co-treatment: did not significantly affect growth; also recorded: had no effect
SVCT-2 cells; 4 days
  effect on cell growth: reduced SVCT-2 cell growth
MCF-7hygro14 cells; Homo sapiens, SRB
  IC50: ~5 µM
MCF-7hygro14 cells; after 4 days, SRB
  growth inhibition: 50%
MCF-7hygro14 cells; [7]
  effect on cell growth of co-treatment: no significant growth-inhibition; also recorded: did not significantly affect growth
MCF-7hygro14 cells; [8]
  effect on cell growth: inhibited

## O=C1NC(=O)C(=Cc2ccc3nccnc3c2)S1 [PI3Kγ inhibitor, 5-Quinoxalin-6-ylmethylene-thiazolidine-2,4-dione]
MCF-7hygro14 cells; PI3K inhibitor 5 nM to 7 μM, maximum dose 7 μM
  effect on cell growth: not affected
MCF-7hygro14 cells; PI3K inhibitor 5 nM to 7 μM, maximum dose 7 μM, listed as PI3K inhibitor
  effect on cell growth: did not affect growth; also recorded: lack of effect
MCF-7hygro14 cells; PI3K inhibitor up to 7 μM with 100 nM Triptorelin
  effect on cell growth of co-treatment: no significant growth-inhibition
MCF-7hygro14 cells; PI3K inhibitor up to 7 μM with 100 nM Triptorelin, listed as PI3K inhibitor
  effect on cell growth of co-treatment: did not significantly alter this result

## COc1ccc(Cl)cc1NC(=O)Nc1cc(C)nc2ccccc12 [IGF-IR inhibitor II, N-(2-Methoxy-5-chlorophenyl)-N'-(2-methylquinolin-4-yl)-urea]
SVCT-2 cells; [5]
  IC50: ~11 µM
SVCT-2 cells; co-treatment with 100 nM Triptorelin, read-out: apparent IC50 growth inhibition
  IC50: ~9 µM
SVCT-2 cells; [6]
  effect on cell growth of co-treatment: small additive effect; also recorded: increased growth inhibition marginally
SVCT-2 cells; co-treatment with 100 nM Triptorelin, 4 days, listed as IGF-IR inhibitor
  effect on cell growth of co-treatment: small additive growth-inhibitory effect
SVCT-2 cells; 4 days
  effect on cell growth: complete growth inhibition accompanied by cell death; also recorded: effectively inhibited
MCF-7hygro14 cells; Homo sapiens, SRB
  IC50: ~17 µM
MCF-7hygro14 cells; Homo sapiens, 15 μM, exposure up to 2 hours, PBS washout, growth over 4 days, read-out: growth inhibition after transient exposure and washout
  inhibition at 15 µM: < 10%
MCF-7hygro14 cells; [7]
  effect on cell growth of co-treatment: no significant effect
MCF-7hygro14 cells; exposure 6 hours or more, PBS washout, growth over 4 days
  growth inhibition after transient exposure and washout: more than 20%
MCF-7hygro14 cells; [8]
  effect on cell growth: Growth and survival were inhibited; also recorded: growth-inhibition and cell death
HEK293[SCL60] cells
  effect on cell growth: inhibited
MDA-MB-231-34 cells
  effect on cell growth: inhibiting their growth also
[2]; [9]
  effect on levels of p-ERK1/2: permanent decrease in levels of p-ERK1/2
  time to decrease in p-ERK1/2: ≤ 30 min
[2]; 15-20 μM IGF-IR inhibitor II, in the presence of serum, listed as IGF-IR inhibitor
  effect on levels of p-ERK1/2: rapid and sustained de-phosphorylation of ERK1/2; also recorded: rapid decrease in the levels of p-ERK1/2
[2]
  ERK1/2 re-phosphorylation after inhibitor wash-off: rapid hyper-phosphorylation of ERK1/2 followed by a slow decline
[2]; [10]
  ERK1/2 re-phosphorylation after inhibitor wash-off: Rapid re-phosphorylation of ERK1/2
[2]; listed as IGF-IR inhibitor
  ERK1/2 re-phosphorylation after inhibitor wash-off: rapid hyper-phosphorylation of ERK1/2, followed by a slow decline to basal levels
[3]
  effect on levels of p-ERK1/2: did not elicit this effect
[3]; listed as IGF-IR inhibitor
  effect on levels of p-ERK1/2: not in MDA-MB-231-34 cells; also recorded: did not affect levels of p-ERK1/2
[4]
  ERK1/2 re-phosphorylation after inhibitor wash-off: hyper-phosphorylation of ERK1/2 did not occur
[4]; [10]
  ERK1/2 re-phosphorylation after inhibitor wash-off: Re-phosphorylation of ERK1/2 was less marked
[4]; listed as IGFR-IR inhibitor II
  ERK1/2 re-phosphorylation after inhibitor wash-off: rapid hyper-phosphorylation of ERK1/2 did not occur
